Series [1] is classed as in vivo. The settings on record: i.p. twice per day for 1 week. The protocol: To test the sub-acute toxicity of the compounds of Formula I, female mice were injected with the compounds and toxicity was evaluated based on mortality, changes in behaviour, appearance and weight. Briefly, ICR normal female mice (5-6 weeks old; n=33) weighing about 0.020 kg in body weight, were injected with various compounds at 100 mg/kg and 50 mg/kg or with the vehicle alone (Lutrol (M68, micronized)). Groups of 3 ICR female mice were injected with one intra-peritoneal (i.p.) injection of 250 μl of each compound at 4.0 mg/ml twice per day (100 mg/kg) for 1 week (Group I); or with one intra-peritoneal (i.p.) injection of 250 μl of each compound at 2.0 mg/ml twice per day (50 mg/kg) for 1 week (Group II), or with one intra-peritoneal (i.p.) injection of 250 μl of lutrol vehicle control twice per day for 1 week (Control Group).
The compounds to be tested were prepared to provide enough for one week at concentrations of 4.0 mg/ml and 2.0 mg/ml. Briefly, 50 mg of each compound was dissolved in 1.25 ml of 100% DMSO and diluted with 6.25 ml of Lutrol (30% in water) and 5 ml water, to prepare a solution of 4 mg/ml compound in 15% Lutrol in water. Next, 4 ml of each prepared solution was further diluted with 4 ml of 15% Lutrol in water to provide the 2.0 mg/ml solution of each compound. For the vehicle control solution, 8 ml of 15% Lutrol in water was prepared. Compounds at concentrations of 4.0 mg/ml and 2.0 mg/ml and the vehicle control were administered as described above.

Series [2] has as its system human colon carcinoma HT-29 cells. The series is described as follows: XTT cell proliferation assay, HT-29. The class given is cell-based. The settings on record: Homo sapiens, HT-29, XTT, read-out: IC50. Here is the method: The ability of compounds of Formula I to inhibit the proliferation of human colon carcinoma HT-29 cells was tested as follows. HT-29 colon carcinoma cells used in this example and subsequent examples were maintained as a monolayer in a growth medium; McCoy's 5A modified medium (Sigma, St. Louis, Mo.), supplemented with 2 mM L-glutamine (Gibco, Grand Island, N.Y.), 10% fetal bovine serum (FBS) (Multicell, WISENT Inc. St-Bruno, QC), antibiotic-antimycotic (Multicell), at 37° C. in a 5% CO2-humidified incubator. Cells were transferred onto 150 mm tissue culture plates and grown until sub-confluency (70-80%) prior to their use. The in vitro antiproliferative activity of compounds was evaluated by incubating the cells with varying concentrations of the compounds as shown in Table 1 for 6-7 days. The efficacy of these compounds in this cell proliferation assay was measured based in the ability of live cells to reduce the tetrazolium salt XTT to orange colored compounds of formazan (XTT cell proliferation kit II, Roche Applied Science, Montreal, QC).
The ability of compounds of Formula I to inhibit the proliferation of human colon carcinoma HT-29 cells was tested as described above in Example 13.
Cell growth inhibition IC50 (μM) by compounds of Formula I was tested on various cancer cell types by XTT cell proliferation assay. The growth inhibitory effects of the compounds of Formula I as shown below for the melanoma cell line SK-MEL-2 were reproducible by Lorus Therapeutics Inc.

In a further series the test system is supercoiled plasmid DNA. The experiment in a line: In vitro DNA cleavage assay. Type of series: biochemical. Here is the method:
Compound 3 was tested for its ability to cleave plasmid DNA in vitro in the presence of copper and the reducing agent ascorbic acid. Experiments were performed in a total of 20 μl, containing 10 mM NaH2PO4/Na2HPO4 buffer (pH 6.7), 1 μg of supercoiled plasmid DNA, 100 μM ascorbic acid, 25 μM drug compound (or vehicle), and 10 μM of CuSO4.5H20. The reaction mixture was incubated at 37° C. for 30 minutes, and 1 μl of 0.1 M EDTA was added to terminate the reaction. DNA loading buffer was added, and reactions were run at 80V for 80 minutes on a 1% agarose gel containing ethidium bromide.
To determine whether ions other than copper could suffice, DNA cleavage reactions were also carried out in the presence of zinc or iron. Reactions were performed as above, in the presence of 25 μM of CuSO4.5H20, ZnCl2, or FeCl2.4H20. […] Note that copper alone in the presence of ascorbic acid can shift the ratio of supercoiled DNA to open circular DNA.
To determine the ratios of compound to copper at which compound 3 was effective, reactions were performed as in FIG. 22A. The ratios of compound 3 to copper of 3:1, 2.5:1, 2:1, 1.5:1, and 1:1, as shown in FIG. 23 were achieved by maintaining the concentration of Cu constant at 10 μM, and varying the concentration of compound 3. The ratios of compound 3 to Cu of 1:1.5, 1:2, 1:2.5, and 1:3, were achieved by maintaining the concentration of compound 3 constant at 10 μM, and varying the concentration of copper.
Other compounds of Formula I, compounds 5, 7, 9 and 13 were also tested for their ability to cleave DNA at a ratio of 2.5:1 to copper (FIG. 23). Ratios of compound 3:copper as indicated, plus concentrations of copper in the absence of compound 3 were used in the DNA cleavage assay as described above.

The next series relates to HT-29 cells. The experiment in a line: Effect of exogenous metals on growth inhibition of HT-29 cells (XTT). The class given is cell-based, human. The settings on record: HT-29, 5 days. The protocol:
To determine whether metal chelation is involved in the growth inhibitory activity of compounds of Formula I, exogenous metals (ZnCl2, FeCl2.4H2O, FeCl3.4H2O, MgCl2, at 100 μM) were incubated with HT-29 cells, simultaneously with control vehicle DMSO, compound 3 (5 μM), or compound 13 (25 μM), for 5 days. […] Growth inhibition by compound 13 is predicted to occur through a different mechanism than compound 3.
To determine whether chelation of copper is involved in the growth inhibitory activity of compounds of Formula I, HT-29 cells were incubated with up to 5 μM of compound 3, in the presence or absence of 25 μM CuSO4.5H20 for 5 days.
To determine whether metal chelation is involved in the growth inhibitory activity of compound 3, various concentrations of exogenous metals were incubated with HT-29 cells, simultaneously with various concentrations of compound 3, for 5 days. The exogenous metals tested were: ZnCl2 (zinc), CuSO4.5H20 (copper), FeCl2 (iron II), FeCl3.4H20 (iron III), MgCl2 (magnesium), and CaCl2.2H20 (calcium). HT-29 cells (4×10^3/well) in 100 μL volume of the growth medium were seeded in 96-well cell culture plates and incubated overnight at 37° C. The medium was removed and replaced with a total volume of 100 μl growth medium containing concentrations of metal ions as shown in FIG. 5 with compound 3 or 0.1% DMSO vehicle control. After incubation of the cells at 37° C. for 5 days, cell viability was quantitated using the XTT (sodium 3′-[1-(phenylamino-carbonyl)-3,4-tetrazolium}-bis (4-methoxy-6-nitro) benzene sulfonic acid hydrate) calorimetric assay (Roche Applied Science, Penzberg, Germany). XTT labeling reagent (1 mg/mL) was mixed with electron-coupling reagent, following the manufacturer's instructions, and 50 μl of the mixture was added directly to the cells cultured in 100 μl growth medium. The plates were further incubated at 37° C. for 4 hours and the absorbance of each well was measured by a multi-well spectrophotometer (Bio-Tek Instruments Inc.) at 460 nm. The data were adjusted relative to the blank, and were expressed as % of cell growth compared to the DMSO control.
To determine the ability of compounds 5 and 7 to chelate metals in cells, exogenous metals were added to HT-29 cells, simultaneously with various concentrations of compounds 5 and 7. Briefly, HT-29 cells were treated with various concentrations compounds 5 and 7, plus or minus copper (25 μM CuSO4.5H20) or zinc (100 μM of ZnCl2), for 5 days. Cell viability was determined by XTT assay. The effects of copper and zinc on growth inhibition of HT-29 cells are shown in FIG. 6A for compound 5 and in FIG. 6B for compound 7.
Effect of metal ion supplements on compound 3-mediated cell growth inhibition of HT-29 cells was examined by XTT cell proliferation assay.

In series [3] the test system is human lung NCI-H460 cells. The experiment in a line: Large-cell lung carcinoma NCI-H460 xenograft model, tumour growth. The settings on record: Lutrol (i.p.), lipid-based (i.v.) or water-based (i.p.) formulations. Type of series: in vivo, CD-1 female nude mice. The protocol:
The ability of compounds of Formula I to inhibit large-cell lung tumour growth in vivo was tested by determining the efficacy of compound 3 in a xenograft model as described below. Compound 3 was tested as a lipid-based formulation having the following composition: distearoylphosphatidylethanolamine-polyethylene glycol 2000 (DSPE-PEG/5% mole) and egg phosphatidylcoline (ePC/95% mole). The formulation was prepared as follows: Stock solutions of compound 3 and lipid (ePC and DSPE-PEG) were prepared in DMF. Specific volumes of the stock solutions of compound 3 and lipid were then mixed in order to achieve a final lipid concentration of 25 mg/mL (ePC:DSPE-PEG=95:5 (mol %) and a compound 3 to total lipid ratio of 1:10 (w/w). The mixture was stirred for four hours, thoroughly dried under nitrogen and left overnight under vacuum. HEPES buffer saline (HBS 0.01 M, pH=7.4) warmed to 60° C. was then added in order to rehydrate the dried film. The solutions were vortexed, stirred for 48 hours at room temperature and sonicated for two and half hours. The formulation was then centrifuged at 1000 rpm for 5 minutes to remove any free compound 3.
CD-1 female nude mice (6-7 weeks, 7 mice per treatment group) were injected […] with human lung NCI-H460 cells (3×10^6 cells in 0.1 ml PBS) subcutaneously. Treatment of the mice with vehicle or compound 3 was initiated 5 days post-inoculation (size of tumours=20-40 mm^3) for 7-day cycles of five days followed by a 2 day break for the duration of the experiment (35 days). Mice were treated with 80 mg/kg/d for the first week followed by 40 mg/kg/d until the end of the experiment. The size of the tumours was measured over the course of the experiment using calipers, and the weight of the tumours was measured after the animals were sacrificed.
The ability of compounds 3, 5, and 7 to inhibit large-cell lung carcinoma cell growth in vivo was tested in the mouse xenograft model as described in Example 27. The compounds were tested as Lutrol formulations (administered i.p.), lipid-based formulations micelles (administered i.v.), or water-based formulations (administered i.p.). The vehicle controls included Lutrol control (administered i.p.), lipid micelle control (administered i.v.), and water control (administered i.p.). Lutrol formulations contained 15% Lutrol and 10% DMSO. The composition of the lipid-based formulations and preparation of same was as described in Example 27 above.

Setting [4] is: 25 μM compound, 10 μM CuSO4, 100 μM ascorbic acid, 37° C., 30 minutes.

“Also recorded” adds a separate entry of the source. Like-named read-outs stand apart in the source and are kept apart here.

For `c1ccc2c(-c3nc4c5cccnc5c5ncccc5c4[nH]3)c(-c3ccncc3)[nH]c2c1` [Compound 11], the figures for the Sub-acute toxicity entry in series [1] (50 mg/Kg) and in series [1] (100 mg/Kg) were “−” and “+”, respectively. For the same compound, the IC50 was > 2500 nM in series [2] (6-7 days, Table 3) and > 2.5 µg/mL in series [2] (as Example 13, Table 7).
Regarding `Cc1[nH]c2ccccc2c1-c1nc2c3ccccc3c3ccccc3c2[nH]1` [Compound 13, reference compound], in the series on supercoiled plasmid DNA (setting [4]), the “cleavage of plasmid DNA” value is “unable to cleave DNA”. Also, the “effect of exogenous metals on activity of the negative control” value in the series on HT-29 cells (compound 13 25 μM) was “None of the metals had any effect; also recorded: Copper had no effect on growth inhibition”.
Consider `Cc1[nH]c2ccc(Cl)cc2c1-c1nc2c3cccnc3c3ncccc3c2[nH]1` [Compound 5], for which, in series [3], the “tumour size and weight” value is “able to decrease the size (FIG. 16A) and weight (FIG. 16B) of tumours”. The IC50 in series [2] (6-7 days, Table 3) is 350 nM; in series [2] (as Example 13, Table 7) it was 0.35 µg/mL. In the series on HT-29 cells (25 μM CuSO4, low concentrations of compound (less than 2 μM)), the “effect of exogenous copper on growth inhibition” value is recorded as “copper impaired the activity only at low concentrations”. In the series on HT-29 cells (ZnCl2 (100 μM)), the “effect of exogenous zinc on growth inhibition” value is listed as “zinc impaired the growth inhibitory activities”.
For the compound `c1cnc2c(c1)ccc1cccnc12` [1,10-phenanthroline (OP), 1,10-phenanthroline, reference compound], the “cleavage of plasmid DNA” value is reported as “able to cleave plasmid DNA” in the series on supercoiled plasmid DNA (setting [4]) and “Neither compound 3 nor OP was able to cleave DNA” in the series with supercoiled plasmid DNA (absence of copper or reducing agent).
For the compound `c1ccc2c(-c3nc4c5cccnc5c5ncccc5c4[nH]3)c(CN3CCCCC3)[nH]c2c1` [Compound 12], the “cleavage of plasmid DNA” value with supercoiled plasmid DNA (setting [4]) was “capable of cleaving DNA”. Besides, the Sub-acute toxicity result in series [1] (50 mg/Kg) is recorded as “−”; in series [1] (100 mg/Kg) it was “+”. Further, the IC50 in series [2] (6-7 days, Table 3) was determined as 280 nM; in series [2] (as Example 13, Table 7) it was 0.28 µg/mL.
